From the Biogen ADME set (Fang et al. 2023)
In brackets after ≈: the same amount, converted by molar mass.

Conditions: for aqueous solubility: pH 6.8

Row | SMILES | MDR1-MDCK efflux ratio | intrinsic clearance, human liver microsomes [L/h/kg] | intrinsic clearance, rat liver microsomes [L/h/kg] | aqueous solubility [mg/mL] | fraction unbound, human plasma | fraction unbound, rat plasma
1 | Cc1ccccc1-n1c(CC2CCN(C(=O)C3CC3)CC2)n[nH]c1=O | 117 | ≤ 0.284 | 1.61 | 0.048 (≈ 141 µM) |  | 
2 | CCn1c(-c2nonc2N)nc2cnc(Oc3cccc(NC(=O)c4ccc(OCCN5CCOCC5)cc4)c3)cc21 | 7.8 | 6.06 | 13.9 |  | 0.00355 | 0.00473
3 | N#CCN(C(=O)c1cn(-c2ccc(Br)cc2)cn1)C1CC1 | 1.04 | ≤ 0.284 | 3.44 | 0.0653 (≈ 189 µM) |  | 
4 | COCCNc1c(C)c(C)nc2cc(-c3nccn3C)nn12 | 1.53 | 1.26 | 4.78 |  |  | 
5 | COc1ccccc1-c1nnc([C@H]2CCN(Cc3ccccc3C)C2)o1 | 0.755 | 9.5 | 191 | 0.037 (≈ 106 µM) |  | 
6 | Cn1cccc(C(=O)NCc2nc(C(C)(C)C)no2)c1=O | 1.44 | ≤ 0.284 | 8.22 |  |  | 
7 | N#Cc1ccccc1OCn1nnc2ccccc2c1=O |  |  |  | 0.00065 (≈ 2.34 µM) |  | 
8 | COc1cc(C)cc(OC)c1-c1ccc(-c2nn[nH]n2)cc1 | 1.97 | ≤ 0.284 | 4.99 |  |  | 
9 | CCCN(C(=O)c1ccc(COC)o1)c1nc2c(s1)CCc1c-2cnn1C |  | 4.54 | 5.34 |  |  | 
10 | COCC(=O)N1CC[C@H](c2nnc(-c3ccc(C)cc3)o2)C1 | 1.36 | ≤ 0.284 | ≤ 0.64 | 0.0527 (≈ 175 µM) |  | 
11 | Cc1c(CN2CCC(Nc3ncnc4sc(CC(F)(F)F)cc34)CC2)ccc2c1cc(C#N)n2Cc1cn[nH]c1 | 14.1 | 8.13 | 6.29 | 0.00323 (≈ 5.72 µM) |  | 
12 | CN(Cc1ccc(N)nc1)c1ncccn1 | 0.62 | ≤ 0.284 | 1.37 | 0.0285 (≈ 132 µM) |  | 
13 | CCNC(=O)N1CCc2nc3ccc(F)cn3c(=O)c2C1 | 10.3 | ≤ 0.284 | ≤ 0.64 | 0.0577 (≈ 199 µM) |  | 
14 | CC(=O)NCCCC(=O)Nc1ccc(Oc2ccccc2Cl)cc1 | 8.25 | 0.577 | 43.3 |  |  | 
15 | CCCC(=O)N1CCC(c2cccc(C)n2)CC1 | 0.574 | ≤ 0.284 | 26.6 | 0.0402 (≈ 163 µM) |  | 
16 | CCCc1cc(CNS(=O)(=O)c2cc(-c3cnc(C)o3)ccc2C)on1 | 7.7 | 23.5 | 150 |  |  | 
17 | O=C(Nc1nc2ccccc2[nH]1)c1cccnc1 |  |  |  | 0.0002 (≈ 0.839 µM) |  | 
18 | Cc1ccc(Oc2ccc(N)cc2)nn1 | 0.725 | ≤ 0.284 | ≤ 0.64 |  |  | 
19 | CCOc1cccc(-c2cccc(N)n2)c1 | 0.559 | 14.2 | 33.4 |  |  | 
20 | OCCN1CCC(c2ccncn2)CC1 | 0.615 | ≤ 0.284 | 2.11 | 0.0374 (≈ 181 µM) |  | 
21 | NCCCC[C@H](N[C@@H](CCc1ccccc1)C(=O)O)C(=O)N1CCC[C@H]1C(=O)O |  |  |  |  |  | 1
22 | Cc1cc(C)cc(NC(=O)COC(=O)c2nn(C)c(=O)c3ccccc23)c1 |  |  |  | 0.00097 (≈ 2.65 µM) |  | 
23 | CC(C)(C)Sc1c(CC(C)(C)C(=O)O)n(Cc2ccc(Cl)cc2)c2ccc(OCc3ccc4ccccc4n3)cc12 | 2.37 | 1.72 | 8.49 | 0.0061 (≈ 10.4 µM) |  | 
24 | OCCN1CCN(c2ccnc3ccc(Br)cc23)CC1 | 1.74 | 0.752 | 6.82 |  |  | 
25 | N#CCCn1nc(C(F)(F)F)cc1O |  |  |  | 0.0231 (≈ 113 µM) |  | 
26 | Cc1ccc(-n2nc(NCc3cnn(C)c3)cc2C)cc1 | 0.727 | ≤ 0.284 | 4.22 |  |  | 
27 | COc1cc(CNc2nc3ccccc3nc2C)ccn1 | 0.664 | 0.661 | 7.44 | 0.0268 (≈ 95.7 µM) |  | 
28 | Cc1cc(C(=O)NCC2CCN(c3ccc4ccccc4n3)CC2)cnc1C | 2.19 | 3.49 | 28.6 |  |  | 
29 | Cn1cc(CCNc2cncc(Br)c2)cn1 | 0.655 | 0.721 | 6.6 | 0.0404 (≈ 144 µM) |  | 
30 | CNCc1cc(N(C)C)nc(C2CCCN2C(=O)COC)n1 (stereo not drawn) | 5.05 | ≤ 0.284 | ≤ 0.64 |  |  | 
